The assay has as its target T1, hPR LBD (initial construct) (Homo sapiens, UniProt P06401).
T1 construct: gene PGR; pET3d, E. coli BL21 lysate; cloned from HOSE cell cDNA
T1 sequence (P06401 634-933): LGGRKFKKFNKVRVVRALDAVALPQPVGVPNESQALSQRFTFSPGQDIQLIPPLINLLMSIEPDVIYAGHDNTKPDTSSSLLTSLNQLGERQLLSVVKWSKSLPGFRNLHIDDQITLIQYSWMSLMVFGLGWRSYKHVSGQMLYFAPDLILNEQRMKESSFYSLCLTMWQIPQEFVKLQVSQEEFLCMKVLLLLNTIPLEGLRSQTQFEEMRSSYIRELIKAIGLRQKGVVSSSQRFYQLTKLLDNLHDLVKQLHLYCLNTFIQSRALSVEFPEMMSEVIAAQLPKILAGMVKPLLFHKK
As to the kind of experiment: competitive radioligand binding, charcoal separation, bacterial lysate. The note with it: 1 nM [3H]-progesterone, 16 h, 4 °C; relative binding affinity compared to progesterone.

For the molecule `CC(=O)[C@H]1CC[C@H]2[C@@H]3CC[C@H]4CC(=O)CC[C@]4(C)[C@H]3CC[C@]12C` [DHP, 5α-dihydroprogesterone], the RBA result is given as “relative binding affinity (RBA) of DHP compared to progesterone measured by competitive binding assays”.

The record behind these values is PMC3507690, “A Single Glycine-Alanine Exchange Directs Ligand Specificity of the Elephant Progestin Receptor” (PLoS ONE, 2012).
